Results: ChEMBL document CHEMBL5726855, “Substituted benzylindazoles for use as Bub1 kinase inhibitors in the treatment of hyperproliferative diseases” (2019)

These compounds were tested against Mitotic checkpoint serine/threonine-protein kinase BUB1 (Homo sapiens, UniProt O43683) (assay: To this end, 100-fold concentrated compound solutions (in DMSO) were previously prepared by serial dilution (1:3.4) of 2 mM stocks in a clear low volume 384-well source microtiter plate (Greiner Bio-One, Frickenhausen, Germany), from which 50 nl of compounds were transferred into a black low volume test microtiter plate from the same supplier. […] The resulting mixture (5 μl final volume) was incubated at 22° C. during 60 min., and the reaction was stopped by the addition of 5 μl of an aqueous EDTA-solution (50 mM EDTA, in 100 mM HEPES pH 7.5 and 0.2% (w/v) bovine serum albumin) which also contained the TR-FRET detection reagents (0.2 μM streptavidin-XL665 [Cisbio Bioassays, Codolet, France] and 1 nM anti-phosho-Serine antibody [Merck Millipore, cat. #35-001] and 0.4 nM LANCE EU-W1024 labeled anti-mouse IgG antibody [Perkin-Elmer, product no. AD0077, alternatively a Terbium-cryptate-labeled anti-mouse IgG antibody from Cisbio Bioassays can be used]). The stopped reaction mixture was further incubated 1 h at 22° C. in order to allow the formation of complexes between peptides and detection reagents. Subsequently, the amount of product was evaluated by measurement of the resonance energy transfer from the Eu-chelate-antlbody complex recognizing the Phosphoserlne residue to the streptavidin-XL665 bound to the biotin moiety of the peptide. […] IC50 values were calculated by fitting the normalized inhibition data to a 4-parameter logistic equation (Minimum, Maximum, IC50, Hill; Y=Max+(Min−Max)/(1+(X/IC50)Hill)) using a Bayer-proprietary analysis software.).
Sequence of Mitotic checkpoint serine/threonine-protein kinase BUB1 (O43683 whole entry): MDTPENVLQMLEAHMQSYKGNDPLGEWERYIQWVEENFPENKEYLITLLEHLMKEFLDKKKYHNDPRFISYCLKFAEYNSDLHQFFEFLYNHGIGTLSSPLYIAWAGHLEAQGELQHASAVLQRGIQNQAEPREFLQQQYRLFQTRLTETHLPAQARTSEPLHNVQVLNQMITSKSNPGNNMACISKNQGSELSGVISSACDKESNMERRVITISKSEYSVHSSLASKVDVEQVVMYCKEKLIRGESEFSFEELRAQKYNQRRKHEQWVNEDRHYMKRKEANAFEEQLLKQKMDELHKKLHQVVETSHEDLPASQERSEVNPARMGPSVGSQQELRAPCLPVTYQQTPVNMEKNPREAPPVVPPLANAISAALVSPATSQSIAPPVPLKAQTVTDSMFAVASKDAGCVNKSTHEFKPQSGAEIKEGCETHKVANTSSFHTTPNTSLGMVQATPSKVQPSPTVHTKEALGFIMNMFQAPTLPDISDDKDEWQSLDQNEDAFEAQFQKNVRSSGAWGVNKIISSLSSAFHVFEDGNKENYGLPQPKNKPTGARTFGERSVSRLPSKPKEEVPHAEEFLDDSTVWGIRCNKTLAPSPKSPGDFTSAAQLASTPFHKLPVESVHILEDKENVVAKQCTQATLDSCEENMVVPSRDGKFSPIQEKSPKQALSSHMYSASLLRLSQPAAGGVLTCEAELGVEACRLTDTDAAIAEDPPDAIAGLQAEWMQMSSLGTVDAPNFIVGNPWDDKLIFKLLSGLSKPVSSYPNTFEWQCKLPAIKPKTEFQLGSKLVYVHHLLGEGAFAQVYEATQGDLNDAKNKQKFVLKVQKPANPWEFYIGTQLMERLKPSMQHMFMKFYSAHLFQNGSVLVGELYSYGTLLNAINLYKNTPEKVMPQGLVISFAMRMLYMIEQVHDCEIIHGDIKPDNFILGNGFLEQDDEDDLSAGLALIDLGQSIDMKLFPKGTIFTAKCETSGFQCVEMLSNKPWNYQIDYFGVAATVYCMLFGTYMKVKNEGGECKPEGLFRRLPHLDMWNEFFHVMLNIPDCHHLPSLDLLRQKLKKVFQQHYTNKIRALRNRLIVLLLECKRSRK

SMILES	IC50 [µM]
COc1cnc(-c2nn(Cc3ccc(C#N)cc3F)c3ccccc23)nc1N(Cc1ccc(C#N)cc1F)c1ccncc1	1.1
COc1cnc(-c2nn(Cc3c(F)cc(F)cc3F)c3ccccc23)nc1N(Cc1c(F)cc(F)cc1F)c1ccncc1	0.89
CCOc1cc(F)c(Cn2nc(-c3ncc(OCCOCCO)c(Nc4ccncc4)n3)c3ccccc32)c(F)c1	0.0074
COc1cnc(-c2nn(Cc3c(F)c(F)c(OCC(F)(F)F)c(F)c3F)c3ccccc23)nc1N(Cc1c(F)c(F)c(OCC(F)(F)F)c(F)c1F)c1ccncc1	3.2
CCOc1cc(F)c(Cn2nc(-c3ncc(OCCSC)c(Nc4ccncc4)n3)c3ccccc32)c(F)c1	0.014
